Experimental data from ChEMBL document CHEMBL4184089 (Bioorg Med Chem Lett, 2018).

Columns and labels:
[1] = target: Sphingosine 1-phosphate receptor 2 (Homo sapiens, UniProt O95136); assay: Displacement of [32P]S1P from recombinant human S1PR2 expressed in Chem1 cell membranes co-expressing Galpha15 pretreated for 30 mins followed by [32P]S1P addition measured after 60 mins by scintillation counting method
[2] = target: Sphingosine 1-phosphate receptor 1 (Homo sapiens, UniProt P21453); assay: Displacement of [32P]S1P from recombinant human S1PR1 expressed in CHOK1 cell membranes pretreated for 30 mins followed by [32P]S1P addition measured after 60 mins by scintillation counting method
[3] = target: Sphingosine 1-phosphate receptor 3 (Homo sapiens, UniProt Q99500); assay: Displacement of [32P]S1P from recombinant human S1PR3 expressed in Chem1 cell membranes co-expressing Galpha15 pretreated for 30 mins followed by [32P]S1P addition measured after 60 mins by scintillation counting method
[4] = target: T1, Sphingosine 1-phosphate receptor 4 (Homo sapiens, UniProt O95977); assay: Displacement of [32P]S1P from recombinant human S1PR4 expressed in cell membranes pretreated for 30 mins followed by [32P]S1P addition measured after 60 mins by scintillation counting method
T1 sequence (O95977 whole entry): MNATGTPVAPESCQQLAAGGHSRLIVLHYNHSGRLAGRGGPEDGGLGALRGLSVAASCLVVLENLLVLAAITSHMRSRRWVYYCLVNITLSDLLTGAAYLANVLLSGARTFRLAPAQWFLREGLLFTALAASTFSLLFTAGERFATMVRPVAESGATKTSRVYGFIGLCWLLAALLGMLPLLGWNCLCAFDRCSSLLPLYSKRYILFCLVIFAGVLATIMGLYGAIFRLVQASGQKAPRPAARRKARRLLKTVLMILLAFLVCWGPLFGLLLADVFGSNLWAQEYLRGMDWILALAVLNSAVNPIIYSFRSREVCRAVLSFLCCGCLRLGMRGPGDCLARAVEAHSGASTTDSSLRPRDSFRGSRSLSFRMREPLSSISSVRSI

[5] = target: Sphingosine 1-phosphate receptor 5 (Homo sapiens, UniProt Q9H228); assay: Displacement of [32P]S1P from recombinant human S1PR5 expressed in cell membranes pretreated for 30 mins followed by [32P]S1P addition measured after 60 mins by scintillation counting method
Sequence of Sphingosine 1-phosphate receptor 5 (Q9H228 whole entry): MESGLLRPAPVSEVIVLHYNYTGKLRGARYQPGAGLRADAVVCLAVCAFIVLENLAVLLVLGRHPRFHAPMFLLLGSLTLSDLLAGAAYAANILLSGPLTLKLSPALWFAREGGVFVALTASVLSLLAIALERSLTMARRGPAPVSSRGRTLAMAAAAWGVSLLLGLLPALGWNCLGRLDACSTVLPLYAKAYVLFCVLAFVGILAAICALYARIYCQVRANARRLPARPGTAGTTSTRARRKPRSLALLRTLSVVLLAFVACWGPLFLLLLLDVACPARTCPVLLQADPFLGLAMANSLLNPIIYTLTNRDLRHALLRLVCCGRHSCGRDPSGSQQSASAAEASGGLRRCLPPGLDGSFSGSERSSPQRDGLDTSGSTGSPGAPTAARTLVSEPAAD

Sequence of Sphingosine 1-phosphate receptor 3 (Q99500 whole entry): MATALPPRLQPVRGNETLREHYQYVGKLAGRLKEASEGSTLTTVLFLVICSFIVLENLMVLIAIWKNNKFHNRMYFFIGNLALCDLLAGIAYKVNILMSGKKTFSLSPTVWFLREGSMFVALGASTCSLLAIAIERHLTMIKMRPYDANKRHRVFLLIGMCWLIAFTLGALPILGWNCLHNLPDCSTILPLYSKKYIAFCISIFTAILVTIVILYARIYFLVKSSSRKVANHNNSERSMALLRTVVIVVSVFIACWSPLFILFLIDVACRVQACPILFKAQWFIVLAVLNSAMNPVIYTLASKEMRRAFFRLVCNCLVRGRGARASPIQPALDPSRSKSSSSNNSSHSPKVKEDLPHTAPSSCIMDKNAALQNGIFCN
Sequence of Sphingosine 1-phosphate receptor 2 (O95136 whole entry): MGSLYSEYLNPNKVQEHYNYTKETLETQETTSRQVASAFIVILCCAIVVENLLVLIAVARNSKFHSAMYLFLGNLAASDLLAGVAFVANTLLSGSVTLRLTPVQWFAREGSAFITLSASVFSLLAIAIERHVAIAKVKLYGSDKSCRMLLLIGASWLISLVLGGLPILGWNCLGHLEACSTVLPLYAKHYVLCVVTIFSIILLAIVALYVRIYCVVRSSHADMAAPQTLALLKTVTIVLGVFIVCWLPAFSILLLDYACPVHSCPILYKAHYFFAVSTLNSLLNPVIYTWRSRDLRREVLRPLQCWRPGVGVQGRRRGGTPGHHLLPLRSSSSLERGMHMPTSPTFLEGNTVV
Sequence of Sphingosine 1-phosphate receptor 1 (P21453 whole entry): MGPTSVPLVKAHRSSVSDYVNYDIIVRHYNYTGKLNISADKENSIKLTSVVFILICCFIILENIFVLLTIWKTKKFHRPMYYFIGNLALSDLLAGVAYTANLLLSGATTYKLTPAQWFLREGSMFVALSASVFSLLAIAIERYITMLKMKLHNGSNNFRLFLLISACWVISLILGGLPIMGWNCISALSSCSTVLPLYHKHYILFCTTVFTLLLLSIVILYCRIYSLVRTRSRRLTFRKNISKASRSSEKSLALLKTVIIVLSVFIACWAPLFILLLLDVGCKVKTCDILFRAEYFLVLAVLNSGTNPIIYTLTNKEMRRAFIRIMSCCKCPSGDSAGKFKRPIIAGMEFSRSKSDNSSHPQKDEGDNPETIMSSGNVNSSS

COc1cc(NC(=O)NC(=O)c2cc(C(F)(F)F)c3c(C)n[nH]c3n2)cc(Cl)n1
IC50 [1]: > 1000 nM

Cc1nn(C)c2nc(NNC(=O)Nc3cc(Cl)n4ccnc4c3)cc(C(C)C)c12
IC50 [1]: > 1000 nM

COc1cc(NC(=O)NC(=O)c2cc(C(C)C)c3c(n2)c(C)nn3C)cc(Cl)n1
IC50 [1]: > 1000 nM

Cc1nn(C)c2nc(NNC(=O)Nc3cc(Cl)nc(OC(C)C)c3)cc(C(C)C)c12
IC50 [1]: 29.1 nM | IC50 [2]: > 1000 nM | IC50 [3]: > 1000 nM | IC50 [4]: > 1000 nM | IC50 [5]: > 1000 nM

Cc1nn(C)c2nc(NNC(=O)Nc3nc4c(Cl)nc(Cl)cc4[nH]3)cc(C(C)C)c12
IC50 [1]: > 1000 nM

Cc1nn(C)c2nc(NNC(=O)Nc3cc(Cl)nc(Cl)c3)cc(C(C)C)c12
IC50 [2]: > 1000 nM | IC50 [3]: > 1000 nM

COc1cc(-c2nc(-c3cc(C(C)C)c4c(C)nn(C)c4n3)no2)cc(Cl)n1
IC50 [1]: > 1000 nM

Cc1nn(C)c2nc(C(=O)NC(=O)Nc3cc(Cl)nc(Cl)c3)cc(C(F)(F)F)c12
IC50 [1]: > 1000 nM

Cc1nn(C)c2nc(NNC(=O)Nc3cc(Cl)nc(OCC4CC4)c3)cc(C(C)C)c12
IC50 [1]: 56.5 nM | IC50 [2]: > 1000 nM | IC50 [3]: > 1000 nM | IC50 [4]: > 1000 nM | IC50 [5]: > 1000 nM

COc1cc(-c2nnc(-c3cc(C(C)C)c4c(C)nn(C)c4n3)[nH]2)cc(Cl)n1
IC50 [1]: > 1000 nM

COc1cc(NC(=O)NC(=O)c2cc(C(F)(F)F)c3c(C)nn(C)c3n2)cc(Cl)n1
IC50 [1]: > 1000 nM

Cc1n[nH]c2nc(C(=O)NC(=O)Nc3cc(Cl)nc(Cl)c3)cc(C(F)(F)F)c12
IC50 [1]: > 1000 nM
